How the values were obtained:
Type in all cases: cell-based
NOX3 = molecular target: T1, NOX3 (Mus musculus, UniProt Q672J9, D161Y); assay: Superoxide production of HEK293 cells transfected with NOX3 alone (luminol-amplified chemiluminescence / Diogenes / cytochrome C reduction)
T1 construct: expressed in transfected cells; host or cells: HEK293, transient transfection, pcDNA3.1
T1 sequence (Q672J9 1-568 D161Y): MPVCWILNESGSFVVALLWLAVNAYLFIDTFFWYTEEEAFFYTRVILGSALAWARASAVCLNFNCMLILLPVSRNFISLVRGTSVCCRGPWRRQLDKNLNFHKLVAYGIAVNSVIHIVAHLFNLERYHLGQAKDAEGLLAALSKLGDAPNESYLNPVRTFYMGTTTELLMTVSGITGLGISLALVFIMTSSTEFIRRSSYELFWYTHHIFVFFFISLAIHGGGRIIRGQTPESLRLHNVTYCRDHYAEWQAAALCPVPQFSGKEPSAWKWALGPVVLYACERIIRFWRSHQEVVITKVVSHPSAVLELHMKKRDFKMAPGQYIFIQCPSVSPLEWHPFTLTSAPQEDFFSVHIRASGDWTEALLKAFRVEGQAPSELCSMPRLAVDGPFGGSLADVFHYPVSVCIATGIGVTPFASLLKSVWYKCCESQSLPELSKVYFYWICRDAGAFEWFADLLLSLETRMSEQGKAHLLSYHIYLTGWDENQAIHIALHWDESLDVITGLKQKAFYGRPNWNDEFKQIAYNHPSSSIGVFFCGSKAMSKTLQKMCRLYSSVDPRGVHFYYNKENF
T1 sequence (P13498 1-195 partner): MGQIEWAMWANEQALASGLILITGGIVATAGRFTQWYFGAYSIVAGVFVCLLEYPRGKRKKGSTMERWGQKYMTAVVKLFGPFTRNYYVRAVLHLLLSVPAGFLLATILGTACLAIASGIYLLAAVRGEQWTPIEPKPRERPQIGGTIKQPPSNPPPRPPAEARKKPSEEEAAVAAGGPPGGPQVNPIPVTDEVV
Procedure: (§1) HEK293 were maintained in Dulbecco's Modified Eagle's Medium/Ham's Nutrient Mixture F12 that was supplemented with 10% fetal calf serum, penicillin (100 units/ml), streptomycin (100 μg/ml), and 4 mmol/liter L-glutamine. NOX3-, NOXO1-, NOXA1-, p47^phox, and p67^phox cDNAs were subcloned into pcDNA3.1 (Invitrogen, Groningen, Netherlands) and transfected into HEK293 cells with the Effectene transfection system (Qiagen). To obtain stable clones, NOX3, NOXO1, NOXA1-transfected HEK293 cells were selected with 400 μg/ml G418 starting on the 2nd day after the transfection. After 14 days of selection, 24 surviving clones were tested for superoxide production. The positive clones were verified to express NOX3-, NOXO1-, and NOXA1 RNA by RT-RCR.
(§2) ROS generation was measured by the peroxidase-dependent luminol-amplified chemiluminescence technique (referred to as luminol-amplified chemiluminescence) in 96 well microplates using Luminometer Wallac 1420 Multilabel Counter (PerkinElmer Life Sciences). Measurements were performed in Hanks' balanced salt solution supplemented with 1 mg/ml D-glucose, 1 unit/ml horseradish peroxidase, and 250 μM luminol. In some experiments, phorbol ester (PMA) was added during the measurements to 100 nM final concentration. When the effect of cisplatin or 5-Fluorouracil (5-FU) was investigated, these compounds were pre-incubated with the cells for the indicated time and concentration in cell culture medium. Before ROS measurements, the cell culture medium was exchanged with the assay solution and chemiluminescence or absorption (see below) was measured at 37° C. After measurements cells were counted, and the results were normalized to 150,000 cells. Extracellular superoxide production was measured in 96-well microplates at 550 nm as the SOD-sensitive reduction of 100 μM ferricytochrome C (referred to as cytochrome C reduction technique). The O^−2 production was calculated using an absorption coefficient of 21.1 mM^−1 cm^−1 and normalized to 10^7 cells.

NOX3/NOXO1/NOXA1 = molecular target: T2, NOX3/NOXO1/NOXA1 (Mus musculus, UniProt Q672J9, D161Y); assay: Superoxide production of HEK293 cells expressing NOX3/NOXO1/NOXA1 (luminol-amplified chemiluminescence)
T2 construct: expressed in transfected cells
Procedure: as §1, §2

[1] = molecular target: T3, NOX3, p47^phox, and p67^phox (Mus musculus, UniProt Q672J9, D161Y); assay: Superoxide production of HEK293 cells co-transfected with NOX3, p47phox and p67phox
T3 construct: expressed in transfected cells; host or cells: HEK293, transient co-transfection, pcDNA3.1
T3 sequence (Q672J9 1-568 D161Y): T1 sequence (Q672J9 1-568 D161Y)
T3 sequence (P13498 1-195 partner): T1 sequence (P13498 1-195 partner)
Procedure: as §1, §2

[2] = test system: HEK293 cells transfected with control vector (pcDNA3.1); assay: Superoxide production of HEK293 cells transfected with control vector; settings: control-transfected (pcDNA3.1) HEK293 cells, 20 μM cisplatin, 12 hours
Procedure: as §1, with “The positive clones were verified to express NOX3-, NOXO1-, and NOXA1 RNA by RT-RCR.” left out
(§3) ROS generation was measured by the peroxidase-dependent luminol-amplified chemiluminescence technique (referred to as luminol-amplified chemiluminescence) in 96 well microplates using Luminometer Wallac 1420 Multilabel Counter (PerkinElmer Life Sciences). […] Before ROS measurements, the cell culture medium was exchanged with the assay solution and chemiluminescence or absorption (see below) was measured at 37° C. After measurements cells were counted, and the results were normalized to 150,000 cells. Extracellular superoxide production was measured in 96-well microplates at 550 nm as the SOD-sensitive reduction of 100 μM ferricytochrome C (referred to as cytochrome C reduction technique). […]

[3] = molecular target: T4, NOXO1, p67^phox, and NOX3 (Mus musculus, UniProt Q672J9, D161Y); assay: Superoxide production of HEK293 cells expressing NOXO1, p67phox and NOX3; settings: 100 nM PMA
T4 construct: expressed in transfected cells; host or cells: HEK293, transient co-transfection, pcDNA3.1
Procedure: as §1, with “The positive clones were verified to express NOX3-, NOXO1-, and NOXA1 RNA by RT-RCR.” left out
as §3

[4] = molecular target: T5, p47^phox, NOXA1, and NOX3 (Mus musculus, UniProt Q672J9, D161Y); assay: Superoxide production of HEK293 cells expressing p47phox, NOXA1 and NOX3; settings: 100 nM PMA
T5 construct: expressed in transfected cells; host or cells: HEK293, transient co-transfection, pcDNA3.1
T5 sequence (Q672J9 1-568 D161Y): T1 sequence (Q672J9 1-568 D161Y)
T5 sequence (P13498 1-195 partner): T1 sequence (P13498 1-195 partner)
Procedure: as §1, with “The positive clones were verified to express NOX3-, NOXO1-, and NOXA1 RNA by RT-RCR.” left out
as §3

[5] = stable clone, 12 hours incubation

T2 sequence (Q8NFA2 whole entry partner, one chain of several): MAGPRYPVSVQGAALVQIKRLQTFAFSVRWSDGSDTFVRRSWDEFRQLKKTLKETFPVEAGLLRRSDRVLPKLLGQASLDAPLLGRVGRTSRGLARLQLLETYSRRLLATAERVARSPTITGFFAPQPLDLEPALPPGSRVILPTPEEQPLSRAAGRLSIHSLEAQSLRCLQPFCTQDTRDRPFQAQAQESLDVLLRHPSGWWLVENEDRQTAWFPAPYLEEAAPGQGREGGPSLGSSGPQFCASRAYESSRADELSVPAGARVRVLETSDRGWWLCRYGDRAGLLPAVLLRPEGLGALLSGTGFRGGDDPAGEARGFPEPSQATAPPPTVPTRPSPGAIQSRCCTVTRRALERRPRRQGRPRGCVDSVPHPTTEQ
T2 sequence (Q86UR1 whole entry partner, one chain of several): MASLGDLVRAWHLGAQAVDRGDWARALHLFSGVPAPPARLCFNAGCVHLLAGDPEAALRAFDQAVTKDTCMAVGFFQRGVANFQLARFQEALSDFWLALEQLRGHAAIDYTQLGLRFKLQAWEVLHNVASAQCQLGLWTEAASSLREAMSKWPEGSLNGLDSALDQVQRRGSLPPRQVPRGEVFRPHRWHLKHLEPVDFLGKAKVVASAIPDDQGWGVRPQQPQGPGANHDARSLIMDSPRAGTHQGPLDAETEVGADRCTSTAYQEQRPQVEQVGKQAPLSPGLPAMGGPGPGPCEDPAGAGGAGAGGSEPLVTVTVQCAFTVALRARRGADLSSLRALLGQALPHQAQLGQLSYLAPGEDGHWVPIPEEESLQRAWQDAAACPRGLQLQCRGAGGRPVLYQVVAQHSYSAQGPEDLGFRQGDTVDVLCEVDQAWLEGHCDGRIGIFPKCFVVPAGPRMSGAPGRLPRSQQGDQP
T4 sequence (Q8NFA2 whole entry partner, one chain of several): as the sequence (Q8NFA2 whole entry partner, one chain of several) above
T4 sequence (P19878 whole entry partner, one chain of several): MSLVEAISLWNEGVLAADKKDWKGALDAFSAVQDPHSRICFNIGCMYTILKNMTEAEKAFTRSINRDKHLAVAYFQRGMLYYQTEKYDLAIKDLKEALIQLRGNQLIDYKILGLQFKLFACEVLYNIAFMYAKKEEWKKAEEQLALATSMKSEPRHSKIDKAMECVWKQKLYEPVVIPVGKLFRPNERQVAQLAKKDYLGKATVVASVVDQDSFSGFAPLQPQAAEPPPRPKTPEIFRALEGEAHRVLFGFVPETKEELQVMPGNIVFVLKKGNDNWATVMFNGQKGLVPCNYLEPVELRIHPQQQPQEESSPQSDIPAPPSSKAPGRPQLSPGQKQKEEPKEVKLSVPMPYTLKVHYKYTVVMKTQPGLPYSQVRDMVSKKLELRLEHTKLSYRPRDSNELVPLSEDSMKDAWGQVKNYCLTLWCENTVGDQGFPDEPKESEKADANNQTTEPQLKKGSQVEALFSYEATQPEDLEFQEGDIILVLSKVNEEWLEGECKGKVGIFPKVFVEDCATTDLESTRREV

## N.N.[Cl][Pt][Cl] [Cisplatin]
NOX3; NOX3-transfected HEK293 cells, 20 μM cisplatin, 12 hours, before PMA addition
  effect of cisplatin on superoxide production: elicited superoxide production
NOX3/NOXO1/NOXA1; stable HEK293 clones, 20 μM cisplatin, 12 hours
  effect of cisplatin on superoxide production: marked increase of superoxide production
NOX3/NOXO1/NOXA1; stable clone, 20 μM cisplatin
  t50 of NOX3 activation: 11.5 ± 1.7 h
  treatment time at which NOX3 activity is already enhanced: 5 h
  treatment time to maximal effect: around 17 hours
NOX3/NOXO1/NOXA1; [5]
  concentration at which NOX3-dependent ROS generation is already increased: 1 µM
  concentration with maximal effect on NOX3-dependent ROS generation: 20 µM
NOX3/NOXO1/NOXA1; stable clone, 12 hours incubation, read-out: EC50 of NOX3 activation
  EC50: 3.6 µM
[1]; 20 μM cisplatin, 12 hours
  factor of enhancement of superoxide production: approximately 3.3
[2]
  effect of cisplatin on superoxide production: not in control-transfected cells

## CCCCCCCCCCCCCC(=O)O[C@@H]1[C@@H](C)[C@@]2(O)[C@@H](C=C(CO)C[C@]3(O)C(=O)C(C)=C[C@@H]23)[C@@H]2C(C)(C)[C@]12OC(C)=O [PMA, phorbol 12-myristate 13-acetate]
NOX3; NOX3-transfected HEK293 cells pre-incubated with 20 μM cisplatin, 100 nM PMA
  effect of PMA on superoxide generation after cisplatin: further increased superoxide generation
NOX3; NOX3-transfected HEK293 cells, no other subunits, 100 nM PMA
  superoxide generation in the presence of PMA: low amounts of superoxide
NOX3/NOXO1/NOXA1; NOX3/NOXO1/NOXA1 HEK293 cells, 100 nM PMA
  effect of PMA on superoxide generation: insensitive to PMA
[1]; 100 nM PMA
  effect of PMA on NOX3 activity: strong enhancement of NOX3 activity
[3]
  effect of PMA on superoxide generation: could not be further enhanced by PMA
[4]
  effect of PMA on superoxide production: largely PMA-dependent

## O=c1[nH]cc(F)c(=O)[nH]1 [5-fluorouracil, 5-Fluorouracil]
NOX3/NOXO1/NOXA1; 100 μM, 17 hours, data not shown
  effect of 5-fluorouracil on superoxide production: did not influence superoxide production

## c1ccc2c(c1)[I+]c1ccccc1-2 [DPI, diphenylene iodonium]
NOX3; NOX3-transfected HEK293 cells, cisplatin and PMA treated, 5 μM DPI
  effect of DPI on superoxide generation: blocked it completely
NOX3/NOXO1/NOXA1; stable HEK293 clones, with or without cisplatin, 5 μM DPI
  effect of DPI on superoxide generation: abolished
[1]; cisplatin-treated cells, 5 μM DPI, not shown
  effect of DPI on superoxide production: blocked
